In test [1] the test system is fluconazole resistant C. albicans strain DSY551 biofilm. Conditions: Table 2.
Test [2] relates to fluconazole resistant C. albicans strain DSY735 biofilm. The settings on record: Table 2.
Where [3] appears, read: MBIC of fluconazole in combination with ARAS.

In the case of `OC(Cn1cncn1)(Cn1cncn1)c1ccc(F)cc1F` [FLU, fluconazole, reference compound], the “FBIC FLU” value in test [1] (setting [3]) turned out to be 2 µg/mL; in test [2] (setting [3]) it was 4 µg/mL. The “MBIC FLU” value in test [1] (fluconazole alone) and in test [2] (fluconazole alone) was more than 64 µg/mL throughout.
